Measurements published in article PMC6919601, “Identification of Plasmodium dipeptidyl aminopeptidase allosteric inhibitors by high throughput screening” (PLoS ONE, 2019).

Biological target: T1, DPAP1 (Plasmodium falciparum, UniProt Q8IIJ9)
T1 sequence (Q8IIJ9 370-599 limits assumed): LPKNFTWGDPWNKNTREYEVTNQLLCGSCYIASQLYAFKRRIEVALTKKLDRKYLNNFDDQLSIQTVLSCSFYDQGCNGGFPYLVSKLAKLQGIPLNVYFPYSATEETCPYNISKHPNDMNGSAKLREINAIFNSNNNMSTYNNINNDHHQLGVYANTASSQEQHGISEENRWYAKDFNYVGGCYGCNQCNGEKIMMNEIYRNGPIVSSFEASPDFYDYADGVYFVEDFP
T1 sequence (Q8IIJ9 28-209 limits assumed): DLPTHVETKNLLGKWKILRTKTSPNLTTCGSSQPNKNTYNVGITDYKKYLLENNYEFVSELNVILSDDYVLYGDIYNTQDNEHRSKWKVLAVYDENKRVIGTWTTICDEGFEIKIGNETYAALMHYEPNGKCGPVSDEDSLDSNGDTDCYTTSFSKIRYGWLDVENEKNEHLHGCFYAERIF
T1 sequence (Q8IIJ9 600-700 limits assumed): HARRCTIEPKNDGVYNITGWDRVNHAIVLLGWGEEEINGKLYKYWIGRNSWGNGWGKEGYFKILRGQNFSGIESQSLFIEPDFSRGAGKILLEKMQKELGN
Experiment: biochemical
Type: biochemical
Settings: for DPAP Primary hit (Hit = 1): 10 μM HTS, 0 not defined; for inhibition at 10 µM: 10 μM compound, parasite lysates, (PR)2Rho, 30 min end-point, read-out: DPAP1 % Inhibition @ 10 uM

Row | Compound | DPAP Primary hit (Hit = 1) | inhibition at 10 µM
1 | N#CC1=C2SCN(Cc3ccco3)CN2C(=O)CC1c1ccc(Cl)cc1 (stereo not drawn) [SMDC170081, Clc1ccc(cc1)C2CC(=O)N3CN(Cc4occc4)CSC3=C2C#N] | 0 | 42%
2 | N#CC1=C2SCN(Cc3ccccc3)CN2C(=O)CC1c1ccc(Cl)cc1 (stereo not drawn) [SMDC170091, Clc1ccc(cc1)C2CC(=O)N3CN(Cc4ccccc4)CSC3=C2C#N] | 0 | 42%
3 | Cc1ccc(C2CC(=O)N3CN(C4CCCCC4)CSC3=C2C#N)cc1 (stereo not drawn) [SMDC170101, Cc1ccc(cc1)C2CC(=O)N3CN(CSC3=C2C#N)C4CCCCC4] | 0 | 26%
4 | CCc1ccc(C2CC(=O)N3CN(C4CCCCC4)CSC3=C2C#N)cc1 (stereo not drawn) [SMDC170103, CCc1ccc(cc1)C2CC(=O)N3CN(CSC3=C2C#N)C4CCCCC4] | 1 | 65%
5 | Cc1ccccc1C1CC(=O)N2CN(C3CCCCC3)CSC2=C1C#N (stereo not drawn) [SMDC170112, Cc1ccccc1C2CC(=O)N3CN(CSC3=C2C#N)C4CCCCC4] | 0 | 24%
6 | CCc1ccc(C2CC(=O)N3CN(Cc4ccccc4)CSC3=C2C#N)cc1 (stereo not drawn) [SMDC170113, CCc1ccc(cc1)C2CC(=O)N3CN(Cc4ccccc4)CSC3=C2C#N] | 0 | 39%
7 | CN1CSC2=C(C#N)C(c3ccc(Br)cc3)CC(=O)N2C1 (stereo not drawn) [SMDC170115, CN1CSC2=C(C#N)C(CC(=O)N2C1)c3ccc(Br)cc3] | 0 | 43%
8 | COc1ccc2ccccc2c1C1CC(=O)N2CN(C3CCCCC3)CSC2=C1C#N (stereo not drawn) [SMDC170116, COc1ccc2ccccc2c1C3CC(=O)N4CN(CSC4=C3C#N)C5CCCCC5] | 0 | 27%
9 | CSc1ccc(C2CC(=O)N3CN(C)CSC3=C2C#N)cc1 (stereo not drawn) [SMDC170124, CSc1ccc(cc1)C2CC(=O)N3CN(C)CSC3=C2C#N] | 1 | 75%
10 | N#CC1=C2SCN(C3CCCCC3)CN2C(=O)CC1c1ccccc1F (stereo not drawn) [SMDC170132, Fc1ccccc1C2CC(=O)N3CN(CSC3=C2C#N)C4CCCCC4] | 0 | 38%
11 | COc1ccc(Br)cc1C1CC(=O)N2CN(C3CCCCC3)CSC2=C1C#N (stereo not drawn) [SMDC170135, COc1ccc(Br)cc1C2CC(=O)N3CN(CSC3=C2C#N)C4CCCCC4] | 1 | 60%
12 | CCOc1ccc(C2CC(=O)N3CN(Cc4ccco4)CSC3=C2C#N)cc1 (stereo not drawn) [SMDC170142, CCOc1ccc(cc1)C2CC(=O)N3CN(Cc4occc4)CSC3=C2C#N] | 0 | 43%
13 | COc1ccc(OC)c(C2CC(=O)N3CN(C4CCCCC4)CSC3=C2C#N)c1 (stereo not drawn) [SMDC170143, COc1ccc(OC)c(c1)C2CC(=O)N3CN(CSC3=C2C#N)C4CCCCC4] | 0 | 10%
14 | COc1cccc(C2CC(=O)N3CN(C4CCCCC4)CSC3=C2C#N)c1OC (stereo not drawn) [SMDC170144, COc1cccc(C2CC(=O)N3CN(CSC3=C2C#N)C4CCCCC4)c1OC] | 0 | 22%
15 | CCOc1ccc(C2CC(=O)N3CN(C4CCCCC4)CSC3=C2C#N)cc1 (stereo not drawn) [SMDC170152, CCOc1ccc(cc1)C2CC(=O)N3CN(CSC3=C2C#N)C4CCCCC4] | 0 | 47%
16 | CCOc1ccc(C2CC(=O)N3CN(Cc4ccccc4)CSC3=C2C#N)cc1 (stereo not drawn) [SMDC170162, CCOc1ccc(cc1)C2CC(=O)N3CN(Cc4ccccc4)CSC3=C2C#N] | 0 | 49%
17 | COc1cc(C2CC(=O)N3CN(C4CCCCC4)CSC3=C2C#N)ccc1O (stereo not drawn) [SMDC170163, COc1cc(ccc1O)C2CC(=O)N3CN(CSC3=C2C#N)C4CCCCC4] | 0 | -1%
18 | COc1cc(C2CC(=O)N3CN(C4CCCCC4)CSC3=C2C#N)cc(OC)c1OC (stereo not drawn) [SMDC170164, COc1cc(cc(OC)c1OC)C2CC(=O)N3CN(CSC3=C2C#N)C4CCCCC4] | 0 | 2%
19 | CCc1ccc(C2CC(=O)N3CN(Cc4ccco4)CSC3=C2C#N)cc1 (stereo not drawn) [SMDC170172, CCc1ccc(cc1)C2CC(=O)N3CN(Cc4occc4)CSC3=C2C#N] | 0 | 34%
20 | COc1cc(C2CC(=O)N3CN(C)CSC3=C2C#N)cc(OC)c1OC (stereo not drawn) [SMDC170174, COc1cc(cc(OC)c1OC)C2CC(=O)N3CN(C)CSC3=C2C#N] | 0 | 4%
21 | Cc1ccc(C2CC(=O)N3CN(CCC(C)C)CSC3=C2C#N)cc1 (stereo not drawn) [SMDC178751, CC(C)CCN1CSC2=C(C#N)C(CC(=O)N2C1)c3ccc(C)cc3] | 0 | 44%

Now from value to molecule:

Row | DPAP Primary hit (Hit = 1) | inhibition at 10 µM | Compound
22 | 0 | 7% | COc1ccc(C2CC(=O)N3CN(Cc4ccccc4)CSC3=C2C#N)cc1OC (stereo not drawn) [SMDC170071, COc1ccc(cc1OC)C2CC(=O)N3CN(Cc4ccccc4)CSC3=C2C#N]
23 | 0 | 26% | Cc1ccccc1C1CC(=O)N2CN(Cc3ccco3)CSC2=C1C#N (stereo not drawn) [SMDC170102, Cc1ccccc1C2CC(=O)N3CN(Cc4occc4)CSC3=C2C#N]
24 | 0 | 48% | CCOc1ccc(C2CC(=O)N3CN(C)CSC3=C2C#N)cc1OC (stereo not drawn) [SMDC170104, CCOc1ccc(cc1OC)C2CC(=O)N3CN(C)CSC3=C2C#N]
25 | 0 | 41% | N#CC1=C2SCN(Cc3ccccc3)CN2C(=O)CC1c1cccs1 (stereo not drawn) [SMDC170105, O=C1CC(C(=C2SCN(Cc3ccccc3)CN12)C#N)c4cccs4]
26 | 0 | 36% | COc1ccc2ccccc2c1C1CC(=O)N2CN(Cc3ccccc3)CSC2=C1C#N (stereo not drawn) [SMDC170106, COc1ccc2ccccc2c1C3CC(=O)N4CN(Cc5ccccc5)CSC4=C3C#N]
27 | 0 | 33% | CN1CSC2=C(C#N)C(c3ccccc3)CC(=O)N2C1 (stereo not drawn) [SMDC170114, CN1CSC2=C(C#N)C(CC(=O)N2C1)c3ccccc3]
28 | 0 | 31% | Cc1ccccc1C1CC(=O)N2CN(Cc3ccccc3)CSC2=C1C#N (stereo not drawn) [SMDC170122, Cc1ccccc1C2CC(=O)N3CN(Cc4ccccc4)CSC3=C2C#N]
29 | 1 | 61% | COc1ccc(Br)cc1C1CC(=O)N2CN(Cc3ccco3)CSC2=C1C#N (stereo not drawn) [SMDC170125, COc1ccc(Br)cc1C2CC(=O)N3CN(Cc4occc4)CSC3=C2C#N]
30 | 1 | 71% | CN1CSC2=C(C#N)C(c3cccc(OCc4ccccc4)c3)CC(=O)N2C1 (stereo not drawn) [SMDC170126, CN1CSC2=C(C#N)C(CC(=O)N2C1)c3cccc(OCc4ccccc4)c3]
31 | 0 | 7% | COc1ccc(OC)c(C2CC(=O)N3CN(Cc4ccco4)CSC3=C2C#N)c1 (stereo not drawn) [SMDC170133, COc1ccc(OC)c(c1)C2CC(=O)N3CN(Cc4occc4)CSC3=C2C#N]
32 | 0 | 19% | COc1cccc(C2CC(=O)N3CN(Cc4ccco4)CSC3=C2C#N)c1OC (stereo not drawn) [SMDC170134, COc1cccc(C2CC(=O)N3CN(Cc4occc4)CSC3=C2C#N)c1OC]
33 | 1 | 59% | COc1ccc(Br)cc1C1CC(=O)N2CN(C)CSC2=C1C#N (stereo not drawn) [SMDC170145, COc1ccc(Br)cc1C2CC(=O)N3CN(C)CSC3=C2C#N]
34 | 1 | 57% | COc1cc(C2CC(=O)N3CN(Cc4ccccc4)CSC3=C2C#N)cc(Br)c1O (stereo not drawn) [SMDC170146, COc1cc(cc(Br)c1O)C2CC(=O)N3CN(Cc4ccccc4)CSC3=C2C#N]
35 | 0 | 18% | COc1cc(C2CC(=O)N3CN(Cc4ccco4)CSC3=C2C#N)ccc1O (stereo not drawn) [SMDC170153, COc1cc(ccc1O)C2CC(=O)N3CN(Cc4occc4)CSC3=C2C#N]
36 | 0 | 32% | COc1ccc(C2CC(=O)N3CN(Cc4ccccc4)CSC3=C2C#N)c(OC)c1 (stereo not drawn) [SMDC170154, COc1ccc(C2CC(=O)N3CN(Cc4ccccc4)CSC3=C2C#N)c(OC)c1]
37 | 1 | 61% | COc1ccc(Br)cc1C1CC(=O)N2CN(Cc3ccccc3)CSC2=C1C#N (stereo not drawn) [SMDC170155, COc1ccc(Br)cc1C2CC(=O)N3CN(Cc4ccccc4)CSC3=C2C#N]
38 | 0 | 31% | COc1ccc2ccccc2c1C1CC(=O)N2CN(Cc3ccco3)CSC2=C1C#N (stereo not drawn) [SMDC170165, COc1ccc2ccccc2c1C3CC(=O)N4CN(Cc5occc5)CSC4=C3C#N]
39 | 1 | 52% | N#CC1=C2SCN(Cc3ccccc3)CN2C(=O)CC1c1cccc2ccccc12 (stereo not drawn) [SMDC170166, O=C1CC(C(=C2SCN(Cc3ccccc3)CN12)C#N)c4cccc5ccccc45]
40 | 0 | 20% | CCOc1cc(C2CC(=O)N3CN(Cc4ccccc4)CSC3=C2C#N)ccc1O (stereo not drawn) [SMDC170173, CCOc1cc(ccc1O)C2CC(=O)N3CN(Cc4ccccc4)CSC3=C2C#N]
41 | 0 | 37% | COc1ccc2ccccc2c1C1CC(=O)N2CN(C)CSC2=C1C#N (stereo not drawn) [SMDC170175, COc1ccc2ccccc2c1C3CC(=O)N4CN(C)CSC4=C3C#N]
42 | 0 | 46% | N#CC1=C2SCN(Cc3ccco3)CN2C(=O)CC1c1cccc2ccccc12 (stereo not drawn) [SMDC170176, O=C1CC(C(=C2SCN(Cc3occc3)CN12)C#N)c4cccc5ccccc45]
